Tested on: MCF7 complex spheroid growth, % test/control
Test: Anticancer human tumor MCF7 cell line growth inhibition [Asc];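 further: spheroids exposed to compounds for 7 days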;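 on viability, T/C: 100% = DMSO vehicle control wells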
Settings: for IC50: curve of first compound; for viability, T/C: stronger effect = lower value
Summary of the method: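 Complex solid-tumor spheroids incorporating human endothelial and mesenchymal stem cells received single agents or combinations over half-log dilution ranges anchored to clinical Cmax.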

- IC50 (second compound 0.00316 µM): < 9.49 nM
- IC50 (second compound 0.01 µM): < 9.49 nM
- IC50 (second compound 0.0316 µM): < 9.49 nM
- IC50 (second compound 0.1 µM): < 9.49 nM
- IC50 (second compound 0.316 µM): < 9.49 nM
- IC50 (second compound 1 µM): < 9.49 nM
Structure (SMILES): Cc1nc(N2CCC3(CC2)COC(C)C3N)c(CO)nc1Sc1ccnc(N)c1Cl (configuration not stated) + CNC(C)C(=O)NC1CN(S(=O)(=O)c2cccc(S(=O)(=O)N3CCC4CCC(C(=O)NC(c5ccccc5)c5ccccc5)N4C(=O)C(NC(=O)C(C)NC)C3)c2)CCC2CCC(C(=O)NC(c3ccccc3)c3ccccc3)N2C1=O
- viability, T/C (second compound 0.00316 µM, first compound 0.00949 µM): 26.7%
- viability, T/C (second compound 0.00316 µM, first compound 0.03 µM): 31.8%
- viability, T/C (second compound 0.00316 µM, first compound 0.0949 µM): 19.9%
- viability, T/C (second compound 0.00316 µM, first compound 0.3 µM): 17.6%
- viability, T/C (second compound 0.00316 µM, first compound 0.949 µM): 10.6%
- viability, T/C (second compound 0.00316 µM, first compound 3 µM): 10.9%
- viability, T/C (second compound 0.01 µM, first compound 0.00949 µM): 15.9%
- viability, T/C (second compound 0.01 µM, first compound 0.03 µM): 11.2%
- viability, T/C (second compound 0.01 µM, first compound 0.0949 µM): 10.3%
- viability, T/C (second compound 0.01 µM, first compound 0.3 µM): 13%
- viability, T/C (second compound 0.01 µM, first compound 0.949 µM): 11.4%
- viability, T/C (second compound 0.01 µM, first compound 3 µM): 11.1%
- viability, T/C (second compound 0.0316 µM, first compound 0.00949 µM): 12.7%
- viability, T/C (second compound 0.0316 µM, first compound 0.03 µM): 10.7%
- viability, T/C (second compound 0.0316 µM, first compound 0.0949 µM): 12.2%
- viability, T/C (second compound 0.0316 µM, first compound 0.3 µM): 11.9%
- viability, T/C (second compound 0.0316 µM, first compound 0.949 µM): 11.3%
- viability, T/C (second compound 0.0316 µM, first compound 3 µM): 9.37%
- viability, T/C (second compound 0.1 µM, first compound 0.00949 µM): 10.1%
- viability, T/C (second compound 0.1 µM, first compound 0.03 µM): 12.7%
- viability, T/C (second compound 0.1 µM, first compound 0.0949 µM): 11.3%
- viability, T/C (second compound 0.1 µM, first compound 0.3 µM): 10.4%
- viability, T/C (second compound 0.1 µM, first compound 0.949 µM): 10.6%
- viability, T/C (second compound 0.1 µM, first compound 3 µM): 10.1%
- viability, T/C (second compound 0.316 µM, first compound 0.00949 µM): 13.9%
- viability, T/C (second compound 0.316 µM, first compound 0.03 µM): 12.2%
- viability, T/C (second compound 0.316 µM, first compound 0.0949 µM): 11.5%
- viability, T/C (second compound 0.316 µM, first compound 0.3 µM): 11.6%
- viability, T/C (second compound 0.316 µM, first compound 0.949 µM): 12.3%
- viability, T/C (second compound 0.316 µM, first compound 3 µM): 12%
- viability, T/C (second compound 1 µM, first compound 0.00949 µM): 13.6%
- viability, T/C (second compound 1 µM, first compound 0.03 µM): 12.7%
- viability, T/C (second compound 1 µM, first compound 0.0949 µM): 14.2%
- viability, T/C (second compound 1 µM, first compound 0.3 µM): 11.9%
- viability, T/C (second compound 1 µM, first compound 0.949 µM): 12.6%
- viability, T/C (second compound 1 µM, first compound 3 µM): 11.9%

Source: PubChem BioAssay AID1963445 (Molecular Pharmacology Branch, DTP, NCI, 2024)
